Results published in patent publication US10610498B2, “Oral veterinary composition with gabapentin” (priority 2015, dated 2020).
“And” between values parts separate entries of the source, which are not always exact repeats. Equal entries are not always repeated. Where two headings read alike, the source gives them in different places.

Experiments:
dogs [1] = settings: cited from earlier work
cats [2] = settings: cited from earlier work
[3] = test system: dogs diagnosed with idiopathic epilepsy; experiment: Efficacy of gabapentin vs phenobarbital against idiopathic epilepsy in dogs (seizure episodes, adverse effects); format: in vivo; settings: for Seizure number per month prior to the study: baseline; for Seizure number per month prior to the study / Clinical adverse effects observed / Seizure number per month after the study / Changes in the type of seizure: individual dogs; for Seizure number per month after the study: monitored 3 months
Description: a) G0-E Group: treated with phenobarbital at dose of 2 mg/Kg of body weight, every 12 hours.
b) G1-E Study Group: treated with gabapentin of 10 mg/Kg of body weight, divided 3 times a day by oral administration.
c) G2-E Study Group: treated with gabapentin of 20 mg/Kg of body weight, divided 3 times a day by oral administration.
Patients were monitored for 3 consecutive months, quantifying seizure episodes for each of the patients, obtaining the following: […]

[4] = test system: dogs with moderate to severe osteoarthritis; experiment: Pain caused by osteoarthritis in dogs, Subjective Clinical Evaluation System; format: in vivo; settings: for Subjective Clinical Evaluation System, global observations: Medians±EE; for Result for the pain treatment (different pain assessment questionnaires): dogs with osteoarthritis, oral, every 12 hours, 8 weeks
Description: (§1) In addition to the tests performed for the treatment of epilepsy, the effect of gabapentin in the pain treatment in dogs caused by osteoarthritis was evaluated, 30 animals of race, age, weight and variable sex were used, with 3/5 of body condition and clinical and radiological signs from moderate to severe of osteoarthritis, according to the Bioarth scale. Two study groups were formed:
(§2) a) G0-D Group: treated with fluoxetine at dose of 1 mg/Kg of body weight, every 12 hours, orally.
(§3) b) G1-D Group: treated with gabapentin of 1.5-10 mg/Kg of body weight, every 12 hours, orally.
(§4) The dogs were monitored 8 consecutive weeks by applying the questionnaires of the Subjective Clinical Evaluation System, Liverpool Osteoarthritis in Dogs and the Helsinki Chronic Pain Index to the owners of the dogs, before and after administration of the treatments.
The Subjective Clinical Evaluation System includes the following evaluation points:
3) Mobility of the affected joint: (0) No limitation of movement and no crepitus is palpable, (1) slight decrease in range of motion (10-20%), no crepitus is palpable, (2) slight decrease in range of motion (10-20%) with palpable crepitation, (3) moderate decrease in range of motion (20-50%) and (4) severe decrease in range of motion (>50%) with palpable crepitus.
4) Hold the contralateral limb high: (0) quickly accept to raise the contralateral limb, (1) offer resistance to the contralateral limb elevation, but maintain its weight on the affected limb for more than one minute, (2) offer moderate resistance to the elevation of the contralateral limb and replaces it after 30 seconds, (3) it offers resistance to the elevation of the contralateral limb and replaces it after 10 seconds and (4) refuses to elevate the contralateral limb.
Statistically significant values were considered for a level of p<0.05.

calf dehorning = settings: gabapentin 15 mg/Kg oral, alone or with meloxicam; cited from earlier work
[5] = reported in dogs; cited from earlier work
neuropathic pain = settings: individually, maximum effect at 60 minutes post-treatment, cited from earlier work
[6] = test system: dogs with moderate to severe osteoarthritis; experiment: Pain caused by osteoarthritis in dogs, Liverpool Osteoarthritis in Dogs questionnaire; format: in vivo; set-up: scale not given here; settings: Medians±EE
Description: as §1, §2, §3, §4
The results of the global observations made by the owners with the Liverpool Osteoarthritis in Dogs questionnaire expressed in Medians±EE are presented in Table 3. The Wilcoxon ranks test was performed using the SPSS Statistics program considering statistically significant values for a level of p<0.05.

[7] = test system: dogs with moderate to severe osteoarthritis; experiment: Pain caused by osteoarthritis in dogs, Helsinki Chronic Pain Index questionnaire; format: in vivo; settings: Medians±EE
Description: as §1, §2, §3, §4
The results of the global observations made by the owners with the Helsinki Chronic Pain Index questionnaire expressed in Medians±EE are presented in Table 3. The Wilcoxon ranks test was performed using the SPSS Statistics program considering statistically significant values for a level of p<0.05.

[8] = horses, cited from earlier work
[9] = horses; 5 mg/Kg oral; cited from earlier work
horses = settings: 2 g/12 h/IV for 8 days; cited from earlier work
plasma proteins = settings: cited from earlier work
dogs [10] = settings: cited from earlier work; remark: listed apart in the source
cats [11] = settings: for 10 and 12 days; cited from earlier work
[12] = G0-E, phenobarbital 2 mg/Kg every 12 hours
[13] = G1-D, gabapentin 1.5-10 mg/Kg every 12 hours orally, WEEK 0
[14] = G1-D, gabapentin 1.5-10 mg/Kg every 12 hours orally, WEEK 4
[15] = G1-D, gabapentin 1.5-10 mg/Kg every 12 hours orally, WEEK 8
[16] = G1-D, gabapentin 1.5-10 mg/Kg every 12 hours orally, WEEK 1
[17] = G1-D, gabapentin 1.5-10 mg/Kg every 12 hours orally, WEEK 2
[18] = G1-D, gabapentin 1.5-10 mg/Kg every 12 hours orally, WEEK 3
[19] = G1-D, gabapentin 1.5-10 mg/Kg every 12 hours orally, WEEK 5
[20] = G1-D, gabapentin 1.5-10 mg/Kg every 12 hours orally, WEEK 6
[21] = G1-D, gabapentin 1.5-10 mg/Kg every 12 hours orally, WEEK 7
[22] = G1-E, gabapentin 10 mg/Kg divided 3 times a day, oral
[23] = G2-E, gabapentin 20 mg/Kg divided 3 times a day, oral
[24] = G0-D, fluoxetine 1 mg/Kg every 12 hours orally, WEEK 0
[25] = G0-D, fluoxetine 1 mg/Kg every 12 hours orally, WEEK 4
[26] = G0-D, fluoxetine 1 mg/Kg every 12 hours orally, WEEK 8
[27] = G0-D, fluoxetine 1 mg/Kg every 12 hours orally, WEEK 1
[28] = G0-D, fluoxetine 1 mg/Kg every 12 hours orally, WEEK 2
[29] = G0-D, fluoxetine 1 mg/Kg every 12 hours orally, WEEK 3
[30] = G0-D, fluoxetine 1 mg/Kg every 12 hours orally, WEEK 5
[31] = G0-D, fluoxetine 1 mg/Kg every 12 hours orally, WEEK 6
[32] = G0-D, fluoxetine 1 mg/Kg every 12 hours orally, WEEK 7

SMILES: CC(=O)Nc1ccc(O)cc1 [paracetamol]
- toxic dose (dogs [1]): 150 mg/kg
- toxic dose (cats [2]): 50 mg/kg

SMILES: CCC1(c2ccccc2)C(=O)NC(=O)NC1=O [Phenobarbital, phenobarbital]
- Seizure number per month prior to the study [3, 12]: 3 and 11 and 13 and 2 (3×) and 8 and 7 and 10 and 1
- Clinical adverse effects observed [3, 12]: NONE (6×) and HYPER- and LIGHT SEDATION (3×)
- Seizure number per month after the study [3, 12]: 0 (5×) and 4 and 1 (4×)

SMILES: NCC1(CC(=O)O)CCCCC1 [Gabapentin]
- Subjective Clinical Evaluation System, global observations [4, 13]: 9 ± 0.86
- Subjective Clinical Evaluation System, global observations [4, 14]: 4 ± 1.02
- Subjective Clinical Evaluation System, global observations [4, 15]: 6 ± 0.73
- Result for the pain treatment (different pain assessment questionnaires) [4]: significantly favorable
- average daily gain compared to the control (calf dehorning): significantly decreases
- concentration of substance P compared to the control (calf dehorning): significantly decreases
- half-life [5]: 3.4 h
- antihyperalgesic effect (neuropathic pain; gabapentin 17.8 mg/Kg subcutaneously): 55%
- Liverpool Osteoarthritis in Dogs questionnaire [6, 13]: 27 ± 2.85
- Liverpool Osteoarthritis in Dogs questionnaire [6, 16]: 24 ± 2.26
- Liverpool Osteoarthritis in Dogs questionnaire [6, 17]: 22 ± 2.35
- Liverpool Osteoarthritis in Dogs questionnaire [6, 18]: 23 ± 3.15
- Liverpool Osteoarthritis in Dogs questionnaire [6, 14]: 22 ± 3.56
- Liverpool Osteoarthritis in Dogs questionnaire [6, 19]: 26 ± 3.15
- Liverpool Osteoarthritis in Dogs questionnaire [6, 20]: 26 ± 2.86
- Liverpool Osteoarthritis in Dogs questionnaire [6, 21]: 23 ± 2.67
- Liverpool Osteoarthritis in Dogs questionnaire [6, 15]: 20 ± 2.35
- Helsinki Chronic Pain Index questionnaire [7, 13]: 22 ± 1.75
- Helsinki Chronic Pain Index questionnaire [7, 16]: 15 ± 3.23
- Helsinki Chronic Pain Index questionnaire [7, 17]: 20 ± 2.87
- Helsinki Chronic Pain Index questionnaire [7, 18]: 15 ± 3.06
- Helsinki Chronic Pain Index questionnaire [7, 14]: 18 ± 2.98
- Helsinki Chronic Pain Index questionnaire [7, 19]: 17 ± 3.68
- Helsinki Chronic Pain Index questionnaire [7, 20]: 18 ± 3.03
- Helsinki Chronic Pain Index questionnaire [7, 21]: 18 ± 2.8
- Helsinki Chronic Pain Index questionnaire [7, 15]: 16 ± 2.42
- Reduction of seizures ([3]; 10 mg/kg oral, month 3 of treatment, best result of the doses evaluated): significant reduction of seizures
- Seizure number per month prior to the study [3, 22]: 11 and 4 and 5 (2×) and 8 and 10 and 6 and 1 and 3 and 9
- Changes in the type of seizure [3, 22]: NONE (6×) and PARTIAL CONVULSIONS (4×)
- Clinical adverse effects observed [3, 22]: NONE (9×) and LIGHT SEDATION
- Seizure number per month after the study [3, 22]: 0 (7×) and RESCUED (2×) and 1
- Seizure number per month prior to the study [3, 23]: 8 (3×) and 2 (2×) and 12 and 6 and 4 (2×) and 3
- Changes in the type of seizure [3, 23]: PARTIAL CONVULSIONS (3×) and NONE (4×) and CLONIC TONIC (3×)
- Clinical adverse effects observed [3, 23]: LIGHT SEDATION (3×) and NONE (6×) and SOMNOLENCE
- Seizure number per month after the study [3, 23]: 2 (2×) and 0 (4×) and 1 (2×) and RESCUED and 3
- half-life ([8]; 20 mg/kg IV): 8.5 h
- half-life ([8]; 20 mg/kg p.o.): 7.7 h
- half-life [9]: 3.4 h

SMILES: CNCCC(Oc1ccc(C(F)(F)F)cc1)c1ccccc1 (centres unmarked) [Fluoxetine]
- Subjective Clinical Evaluation System, global observations [4, 24]: 8.5 ± 0.51
- Subjective Clinical Evaluation System, global observations [4, 25]: 8.5 ± 1.19
- Subjective Clinical Evaluation System, global observations [4, 26]: 8 ± 1.79
- Result for the pain treatment (different pain assessment questionnaires) [4]: significantly favorable
- Liverpool Osteoarthritis in Dogs questionnaire [6, 24]: 26 ± 2.2
- Liverpool Osteoarthritis in Dogs questionnaire [6, 27]: 23.5 ± 5.4
- Liverpool Osteoarthritis in Dogs questionnaire [6, 28]: 26 ± 5.19
- Liverpool Osteoarthritis in Dogs questionnaire [6, 29]: 22.5 ± 4.52
- Liverpool Osteoarthritis in Dogs questionnaire [6, 25]: 22.5 ± 4.38
- Liverpool Osteoarthritis in Dogs questionnaire [6, 30]: 23 ± 2.95
- Liverpool Osteoarthritis in Dogs questionnaire [6, 31]: 23 ± 2.56
- Liverpool Osteoarthritis in Dogs questionnaire [6, 32]: 22.5 ± 1.95
- Liverpool Osteoarthritis in Dogs questionnaire [6, 26]: 20.5 ± 1.35
- Helsinki Chronic Pain Index questionnaire [7, 24]: 21.5 ± 2.43
- Helsinki Chronic Pain Index questionnaire [7, 27]: 20.5 ± 3.66
- Helsinki Chronic Pain Index questionnaire [7, 28]: 20 ± 3.1
- Helsinki Chronic Pain Index questionnaire [7, 29]: 15.5 ± 3.1
- Helsinki Chronic Pain Index questionnaire [7, 25]: 15.5 ± 2.56
- Helsinki Chronic Pain Index questionnaire [7, 30]: 15 ± 1.54
- Helsinki Chronic Pain Index questionnaire [7, 31]: 14 ± 2.35
- Helsinki Chronic Pain Index questionnaire [7, 32]: 13.5 ± 1.55
- Helsinki Chronic Pain Index questionnaire [7, 26]: 13.5 ± 1.41

SMILES: CCCCC1C(=O)N(c2ccccc2)N(c2ccccc2)C1=O [phenylbutazone]
- adverse effects of claudication treatment (horses): gastric ulcers and necrotizing colitis with protein loss

SMILES: CC(=O)Oc1ccccc1C(=O)O [acetylsalicylic acid]
- bound to plasma proteins (plasma proteins): 90%
- dose at which vomiting and gastric ulcers have been described (dogs [10]; intake for 1 week): greater than 50 mg/kg/24 h
- dose at which vomiting and gastric ulcers have been described (dogs [10]; intake for 4 weeks): > 100 mg/kg/24 h
- toxic dose (cats [11]): 80-120 mg/Kg/24 h

SMILES: CN1CC[C@]23c4c5ccc(O)c4O[C@H]2[C@@H](O)C=C[C@H]3[C@H]1C5 [morphine]
- antihyperalgesic effect (neuropathic pain; morphine 3.2 mg/Kg subcutaneously): 51.7%
